One data set can be described thus: physchem. The conditions noted are these: for Aqueous drug concentration, 10% RUBUSOSIDE: Table 8, 10% w/v rubusoside (SFA) water solution. As for the experimental part: Solubility test methods: A compound with low solubility was selected and weighed into multiple centrifuge tubes. Each experimental tube received a known amount of the solubilizing agent being tested. The control tubes remained only with the compound. The same volume, 1 mL, unless otherwise indicated, of deionized and distilled water was added to each tube. Alternatively, a set percentage of water solutions containing the solubilizer to be tested (e.g., 5% w/v or 10% w/v) were prepared separately. In these cases, the solubilizer-water solutions were added directly to the tubes containing the low-solubility compound. The tubes were then vortexed briefly and then sonicated for 60 min at temperature of 50° C. unless otherwise indicated. After sonication, the tubes were placed on an orbital shaker at a speed of 80 rpm in an incubator set at 25° C. for at least 24 hr. The tubes were then centrifuged at 4000 rpm for 10 min. The supernatant solution was passed through a 0.2 μm or 0.45 μm filter and analyzed for the concentration of the low-solubility compound, and sometimes the solubilizing compound, by HPLC or UV-Vis spectrophotometer.
The system was computer controlled, and the results were analyzed using Empower software. Calibrations curves were constructed using known concentrations of the compounds and were used to quantify the concentrations of the compounds dissolved in solution. A more complete description of the HPLC procedure for some of the diterpene glycosides is found in G. Chou et al., “Quantitative and fingerprint analyses of Chinese sweet tea plant (Rubus suavissimus S. Lee),” J. Agric. Food Chem., vol.
The ratio of peak areas was used to calculate the increase in water solubility in the absence or presence of solubilizers.

The conditions of data set [1]: cited from earlier work; for Aqueous drug concentration, AQUEOUS SOLUTION: Table 8, without rubusoside, same values as published ones of Table 1; for Water solubility in words: The Merck Index (1996) or Material Safety Data Sheets.
Data set [2] is described as follows: Estimated safe daily consumption of steviol glycosides. An excerpt:
Some diterpene glycosides have been approved by the FDA as sweeteners (e.g., rebaudioside A).

Setting [3] is: 25 °C, aqueous with cosolvent or surfactant or cyclodextrin, thermodynamic from solid, Solubility in water with solubilizer.
Setting [4] is: 25 °C, aqueous with cosolvent or surfactant or cyclodextrin, thermodynamic from solid, Solubility in water with solubilizer, natural solubilizer (rubusoside) 10% w/v (100 mg in 1 ml).

In brackets after ≈: the same amount, converted by molar mass.

In general, solubility refers to the dissolved amount per volume that the medium holds. A low value points to little dissolved substance.

On to `C[C@@H]1[C@H](O)[C@@H](C)/C=C/C=C/CC/C=C/C=C/C=C/C=C/C(O[C@H]2O[C@H](C)[C@@H](O)[C@H](N)[C@@H]2O)CC2O[C@](O)(CC(O)C(O)CCC(O)CC(O)CC(O)CC(=O)O[C@H]1C)CC(O)C2C(=O)O` (stereo partly shown) [Nystatin, reference compound], for which the “Aqueous drug concentration, 10% RUBUSOSIDE” value in the data set “physchem” was 1,100 μg/ml. Further, the “Aqueous drug concentration, AQUEOUS SOLUTION” value in data set [1] is 66 µg/mL.

With `Cc1ccc(-c2cc(C(F)(F)F)nn2-c2ccc(S(N)(=O)=O)cc2)cc1` [Celecoxib, reference compound], in “physchem”, the “Concentration in water without rubusoside (control sample)” value was “not detected” and the Solubility increase factor entry was “Many”. The same compound displayed a solubility in the data set “physchem” (setting [3]) of 488 µg/mL (≈ 1.28 mM).

Compound `C[C@@H]1O[C@@H](OC[C@H]2O[C@@H](Oc3c(-c4ccc(O)c(O)c4)oc4cc(O)cc(O)c4c3=O)[C@H](O)[C@@H](O)[C@@H]2O)[C@H](O)[C@H](O)[C@H]1O` [Rutin] came in with a solubility in “physchem” (setting [3]) of 1750 µg/mL (≈ 2.87 mM). In addition, the “Water solubility in words” value in data set [1] is “nearly insoluble”.

Consider `C[C@@H]1[C@H](O)[C@@H](C)/C=C/C=C/C=C/C=C/C=C/C=C/C=C/[C@H](O[C@@H]2O[C@H](C)[C@@H](O)[C@H](N)[C@@H]2O)C[C@@H]2O[C@](O)(C[C@@H](O)C[C@@H](O)[C@H](O)CC[C@@H](O)C[C@@H](O)CC(=O)O[C@H]1C)C[C@H](O)[C@H]2C(=O)O` [Amphotericin B, reference compound], for which the “Aqueous drug concentration, 10% RUBUSOSIDE” value in the data set “physchem” turned out to be 200 µg/mL. Also, the “Aqueous drug concentration, AQUEOUS SOLUTION” value in data set [1] was 82 µg/mL.

With `CO[C@H]1C[C@@H]2CC[C@@H](C)[C@@](O)(O2)C(=O)C(=O)N2CCCC[C@H]2C(=O)O[C@H]([C@H](C)C[C@@H]2CC[C@@H](O)[C@H](OC)C2)CC(=O)[C@H](C)/C=C(\C)[C@@H](O)[C@@H](OC)C(=O)[C@H](C)C[C@H](C)/C=C/C=C/C=C/1C` [Rapamycin (Sirolimus), Rapamycin, reference compound], in the data set “physchem”, the Solubility increase factor was 92. In addition, in “physchem” (setting [3]), the concentration in solution (solubility) was 240 µg/mL (≈ 0.263 mM). The “Water solubility in words” value in data set [1] is “insoluble”.

On to `CC(C)c1cccc(C(C)C)c1O` [Propofol, reference compound], for which, in the data set “physchem”, the “Concentration in water without rubusoside (control sample)” value was “no measurable propofol” and the Solubility increase factor was 74. For the same compound, in the data set “physchem” (setting [3]), the solubility was determined as 11700 µg/mL (≈ 65.6 mM).

In the data set “physchem”, `C[C@@H]1CC[C@H]2[C@@H](C)C(=O)O[C@@H]3O[C@@]4(C)CC[C@@H]1[C@]32OO4` [Artemisinin, reference compound] gave a Solubility increase factor of 5. The compound also came in with a solubility in “physchem” (setting [3]) of 280 µg/mL (≈ 0.992 mM).

Take `COc1cc(C2Oc3cc([C@H]4Oc5cc(O)cc(O)c5C(=O)[C@@H]4O)ccc3OC2CO)ccc1O` (stereo partly shown) [Silybin (Silibinin), Silybin]: the Solubility increase factor result in the data set “physchem” was “Many”. The same compound had a solubility in “physchem” (setting [3]) of 150 µg/mL (≈ 0.311 mM).

Regarding `O=C(O)c1cc(O)c(O)c(O)c1` [Gallic acid], in the data set “physchem”, the Solubility increase factor is given as 9.6. Also, the “Amount dissolved in 1 ml water” value in “physchem” (400 mg rubusoside, 25° C.) amounted to 106 mg; in “physchem” (800 mg rubusoside, 37° C.), 212 mg. The “Fold increase over amount dissolved in plain water” value in the data set “physchem” (800 mg rubusoside, 37° C.) came to 19.3 fold. Moreover, the solubility in “physchem” (setting [3]) came to 106000 µg/mL (≈ 623 mM).

With `COC1=C(OC)C(=O)C(C/C=C(\C)CC/C=C(\C)CC/C=C(\C)CC/C=C(\C)CC/C=C(\C)CC/C=C(\C)CC/C=C(\C)CC/C=C(\C)CC/C=C(\C)CCC=C(C)C)=C(C)C1=O` [Coenzyme Q10], in the data set “physchem”, the “Solubility in water with solubilizer” value worked out at 111 µg/mL and the Solubility increase factor was 1110. This compound also had a solubility in “physchem” (setting [3]) of 111 µg/mL (≈ 0.129 mM).

For the compound `Cc1coc2c1C(=O)C(=O)c1c-2ccc2c1CCCC2(C)C` [Tanshinone IIA], the solubility was ~53.3 µg/mL (≈ 0.181 mM) in “physchem” (setting [4]) and ~128 µg/mL (≈ 0.434 mM) in the data set “physchem” (25 °C, aqueous with cosolvent or surfactant or cyclodextrin, thermodynamic from solid, Solubility in water with solubilizer, natural solubilizer (rubusoside) 20% w/v (200 mg in 1 ml)). Also, in data set [1], the “Water solubility in words” value is given as “nearly insoluble”.

`COc1cc(CNC(=O)CCCC/C=C/C(C)C)ccc1O` [Capsaicin, reference compound]: in “physchem”, the “Concentration in water without rubusoside (control sample)” value is 57 µg/mL and the Solubility increase factor came out at 86. Moreover, in “physchem” (20 mg rubusoside in 1 ml water), the “Concentration dissolved in rubusoside water solution” value is 589 µg/mL. The amount in solution in the data set “physchem” (setting [4]) (solubility) came to 4920 µg/mL (≈ 16.1 mM). The same compound showed a solubility in the data set “physchem” (25 °C, water, thermodynamic from solid, Solubility) of 57 µg/mL (≈ 0.187 mM).

As to `COc1cc([C@@H]2c3cc4c(cc3[C@H](O)[C@H]3COC(=O)[C@H]23)OCO4)cc(OC)c1OC` [Podophyllotoxin, reference compound], the concentration in solution in the data set “physchem” (25 °C, aqueous with cosolvent or surfactant or cyclodextrin, thermodynamic from solid) (solubility) came to 919 µg/mL (≈ 2.22 mM). Besides, in data set [1], the “Water solubility in words” value is “nearly insoluble”.

For `C=C1C[C@@]23CC[C@H]4[C@@](C)(CCC[C@@]4(C)C(=O)O[C@@H]4O[C@H](CO)[C@@H](O)[C@H](O)[C@H]4O)[C@@H]2CC[C@]1(O[C@@H]1O[C@H](CO)[C@@H](O)[C@H](O)[C@H]1O)C3` [rubusoside, b-D-glucosyl ester of 13-O-b-D-glucosyl-steviol], the Water solubility result in “physchem” is “about 60 g/100 mL water”. The solubility was ~400000 µg/mL (≈ 622 mM) in “physchem” (25 °C, water, Solubility in water) and ~800000 µg/mL (≈ 1240 mM) in the data set “physchem” (37 °C, water, Solubility in water). The “Daily consumption that is safe and has no adverse effect” value in data set [2] is 8 mg rubusoside/kg body weight. Moreover, the No-observed-effect level entry in data set [2] (estimate based on 383 mg/kg expressed as steviol) was “up to 766 mg rubusoside/kg body weight”.

For the compound `CCC(C)n1ncn(-c2ccc(N3CCN(c4ccc(OCC5COC(Cn6cncn6)(c6ccc(Cl)cc6Cl)O5)cc4)CC3)cc2)c1=O` (stereo not shown) [Itraconazole, reference compound], in “physchem”, the “Concentration in water without rubusoside (control sample)” value is listed as “not detected”, the “Solubility in water with solubilizer” value worked out at 21 µg/mL and the Solubility increase factor entry is recorded as “Many”.

`CC[C@H]1OC(=O)[C@H](C)[C@@H](O[C@H]2C[C@@](C)(OC)[C@@H](O)[C@H](C)O2)[C@H](C)[C@@H](O[C@@H]2O[C@H](C)C[C@H](N(C)C)[C@H]2O)[C@](C)(O)C[C@@H](C)C(=O)[C@H](C)[C@@H](O)[C@]1(C)O` [Erythromycin, reference compound]: the Solubility increase factor in “physchem” came to 11. The solubility in the data set “physchem” (setting [3]) turned out to be 5330 µg/mL (≈ 7.27 mM).

On to `Cc1c(C)c2c(c(C)c1O)CC[C@@](C)(CCC[C@H](C)CCC[C@H](C)CCCC(C)C)O2` [Alpha-Tocopherol (VE), Alpha-tocopherol], for which, in the data set “physchem”, the “Solubility in water with solubilizer” value was 13,250 μg/mL and the Solubility increase factor result was “Many”.

Source of the values: US20110033525A1, “Diterpene Glycosides as Natural Solubilizers” (priority 2008, published 2011).
